Data: US20260315612A1, “Topoisomerase Inhibitors, Methods of Making, and Methods of Use Thereof” (NJ Bio, Inc., priority 2023, published 2026)

System: SKBR-3 cell line (human breast cancer)
Assay: Cytotoxicity Assay (Cell titer glo, 72 h), SKBR-3
Type: cell-based
Conditions: for IC50: Homo sapiens, SK-BR-3, free payloads, 72 hours; for Normalized IC50 (PL IC50/DXD IC50): ratio of payload IC50 to DXD control IC50
Experimental: Day 1: 2,000 cells/well were plated and incubated at 37° C. overnight.
Day 2: Payload/ADC/vehicle control dilutions were made in respective media and added to cells. Volume added: 50 uL to each well. Starting treatment concentration was 1 mM for free payloads/1 μM for ADC's/10% for vehicle control and then diluted 10-fold down for a total of 11 treatment dilutions. Each concentration was analyzed in triplicates. Media-only wells were used as a control to calculate percent viability.
Day 5: Cell titer glow reagent (volume: 50 uL) was added to each well, the plate was shaken for 5 mins and the luminescence was recorded. Drug Treatment Time: 72 hours. Data Analysis: Percent viability was calculated by dividing the luminescence signal obtained for each treated well by the untreated well (media-only control) and multiplying by 100. Data was next transformed using X=Log (x) and then analyzed with nonlinear regression (curve fit), Dose Response inhibition−log (inhibitor) vs response (3 parameters) using PRISM software to determine the IC50 value.

SMILES | IC50 [nM] | Normalized IC50 (PL IC50/DXD IC50)
CC[C@@]1(O)C(=O)OCc2c1cc1n(c2=O)Cc2c-1nc1cc(F)c(C)cc1c2Cn1cc(-c2ccccc2NC(=O)CN)nn1 [Payload 66] | 54.7 | 3.58
CC[C@@]1(O)C(=O)OCc2c1cc1n(c2=O)Cc2c-1nc1cc(F)c(C)cc1c2Cn1cc(-c2ccc(NC(=O)CN)cc2)nn1 [Payload 67] | 9.15 | 0.60
CC[C@@]1(O)C(=O)OCc2c1cc1n(c2=O)Cc2c-1nc1cc(F)c(C)cc1c2Cn1cc(CN2CCN(C(=O)CO)CC2)nn1 [Payload 60] | 284 | 338.2
CC[C@@]1(O)C(=O)OCc2c1cc1n(c2=O)Cc2c-1nc1cc(F)c(C)cc1c2Cn1cc(CCNC(=O)CO)nn1 [Payload 38] | 34.6 | 37.23
CC[C@@]1(O)C(=O)OCc2c1cc1n(c2=O)Cc2c-1nc1cc(F)c(C)cc1c2Cn1cc(-c2ccccc2N)nn1 [Payload 19] | 22.4 | 4.96
CC[C@@]1(O)C(=O)OCc2c1cc1n(c2=O)Cc2c-1nc1cc(F)c(C)cc1c2Cn1cc(C2(N)CC2)nn1 [Payload 47] | 33.2 | 4.86
CC[C@@]1(O)C(=O)OCc2c1cc1n(c2=O)Cc2c-1nc1cc(F)c(C)cc1c2Cn1cc(COC2CCCCO2)nn1 (stereo partly drawn) [Payload 1] | 77.8 | 8.67
CC[C@@]1(O)C(=O)OCc2c1cc1n(c2=O)Cc2c-1nc1cc(F)c(C)cc1c2Cn1cc(COCCN)nn1 [Payload 55] | 25.2 | 17.60
CC[C@@]1(O)C(=O)OCc2c1cc1n(c2=O)Cc2c-1nc1cc(F)c(C)cc1c2Cn1cc(CN2CCOC(CN)C2)nn1 (stereo partly drawn) [Payload 58] | 30.5 | 23.79
CC[C@@]1(O)C(=O)OCc2c1cc1n(c2=O)Cc2c-1nc1cc(F)c(C)cc1c2Cn1cc(CNC(=O)OC(C)(C)C)nn1 [Payload 4] | 126 | 14.03
CC[C@@]1(O)C(=O)OCc2c1cc1n(c2=O)Cc2c-1nc1cc(F)c(C)cc1c2Cn1cc(CO)nn1 [Payload 2] | 80.9 | 9.01
CC[C@@]1(O)C(=O)OCc2c1cc1n(c2=O)Cc2c-1nc1cc(F)c(C)cc1c2Cn1nncc1CCO [Payload 65] | 134 | 18.50
CC[C@@]1(O)C(=O)OCc2c1cc1n(c2=O)Cc2c-1nc1cc(F)c(C)cc1c2Cn1nncc1CNC [Payload 9] | 94.6 | 13.01
CC[C@@]1(O)C(=O)OCc2c1cc1n(c2=O)Cc2c-1nc1cc(F)c(C)cc1c2Cn1cc(CN2CCC(CO)CC2)nn1 [Payload 23] | 1250 | 199.52
CC[C@@]1(O)C(=O)OCc2c1cc1n(c2=O)Cc2c-1nc1cc(F)c(C)cc1c2Cn1cc(CNC(=O)CN)nn1 [Payload 32] | 336 | 21.94
CC[C@@]1(O)C(=O)OCc2c1cc1n(c2=O)Cc2c-1nc1cc(F)c(C)cc1c2Cn1cc(CCCN)nn1 [Payload 53] | 18 | 3.60
CC[C@@]1(O)C(=O)OCc2c1cc1n(c2=O)Cc2c-1nc1cc(F)c(C)cc1c2Cn1nncc1CN [Payload 8] | 16.5 | 1.84
CC[C@@]1(O)C(=O)OCc2c1cc1n(c2=O)Cc2c-1nc1cc(F)c(C)cc1c2Cn1cc(-c2cccc(N)n2)nn1 [Payload 48] | 40.2 | 
CC[C@@]1(O)C(=O)OCc2c1cc1n(c2=O)Cc2c-1nc1cc(F)c(C)cc1c2Cn1cc(CN2CCCCC2CO)nn1 (stereo partly drawn) [Payload 54] | 8.94 | 6.24
CC[C@@]1(O)C(=O)OCc2c1cc1n(c2=O)Cc2c-1nc1cc(F)c(C)cc1c2Cn1cc(C(C)O)nn1 (stereo partly drawn) [Payload 11] | 194 | 45.22
CC[C@@]1(O)C(=O)OCc2c1cc1n(c2=O)Cc2c-1nc1cc(F)c(C)cc1c2Cn1cc(CN2CCOC(CNC(=O)CO)C2)nn1 (stereo partly drawn) [Payload 62] | 2040 | 1714.88
CC[C@@]1(O)C(=O)OCc2c1cc1n(c2=O)Cc2c-1nc1cc(F)c(C)cc1c2Cn1cc(C(C)N)nn1 (stereo partly drawn) [Payload 50] | 18.6 | 3.72
CC[C@@]1(O)C(=O)OCc2c1cc1n(c2=O)Cc2c-1nc1cc(F)c(C)cc1c2Cn1cc(CCNC)nn1 [Payload 37] | 50.8 | 3.32
CC[C@@]1(O)C(=O)OCc2c1cc1n(c2=O)Cc2c-1nc1cc(F)c(C)cc1c2Cn1nncc1CO [Payload 3] | 107 | 11.97

SMILES | IC50 [nM] | Normalized IC50 (PL IC50/DXD IC50)
CC[C@@]1(O)C(=O)OCc2c1cc1n(c2=O)Cc2c-1nc1cc(F)c(C)cc1c2Cn1cc(C(C)(C)N)nn1 [Payload 51] | 15.3 | 3.05
CC[C@@]1(O)C(=O)OCc2c1cc1n(c2=O)Cc2c-1nc1cc(F)c(C)cc1c2Cn1cc(CN2CCNCC2)nn1 [Payload 22] | 102 | 20.02
CC[C@@]1(O)C(=O)OCc2c1cc1n(c2=O)Cc2c-1nc1cc(F)c(C)cc1c2Cn1cc(-c2ccc(N)nc2)nn1 [Payload 52] | 18 | 2.88
CC[C@@]1(O)C(=O)OCc2c1cc1n(c2=O)Cc2c-1nc1cc(F)c(C)cc1c2Cn1cc(-c2ccc(NC(=O)CO)cc2)nn1 [Payload 15] | 25.8 | 27.79
CC[C@@]1(O)C(=O)OCc2c1cc1n(c2=O)Cc2c-1nc1cc(F)c(C)cc1c2Cn1cc(-c2cccnc2N)nn1 [Payload 49] | 8.14 | 1.30
CC[C@@]1(O)C(=O)OCc2c1cc1n(c2=O)Cc2c-1nc1cc(F)c(C)cc1c2Cn1cc(-c2cc(F)cnc2N)nn1 [Payload 46] | 3.68 | 0.24
CC[C@@]1(O)C(=O)OCc2c1cc1n(c2=O)Cc2c-1nc1cc(F)c(C)cc1c2Cn1cc(C2CCCN2C(=O)CO)nn1 (stereo partly drawn) [Payload 61] | 211 | 177.62
CC[C@@]1(O)C(=O)OCc2c1cc1n(c2=O)Cc2c-1nc1cc(F)c(C)cc1c2Cn1cc(CCN)nn1 [Payload 36] | 1010 | 203.63
CC[C@@]1(O)C(=O)OCc2c1cc1n(c2=O)Cc2c-1nc1cc(F)c(C)cc1c2Cn1cc(-c2ccc(N)cc2)nn1 [Payload 13] | 30.8 | 6.84
CC[C@@]1(O)C(=O)OCc2c1cc1n(c2=O)Cc2c-1nc1cc(F)c(C)cc1c2Cn1cc(CN2CCCC(CO)C2)nn1 (stereo partly drawn) [Payload 56] | 10.1 | 7.05
CC[C@@]1(O)C(=O)OCc2c1cc1n(c2=O)Cc2c-1nc1cc(F)c(C)cc1c2Cn1cc(CCO)nn1 [Payload 39] | 4.63 | 0.92
CC[C@@]1(O)C(=O)OCc2c1cc1n(c2=O)Cc2c-1nc1cc(F)c(C)cc1c2Cn1cc(CCCNC(=O)CO)nn1 [Payload 68] | 17.6 | 19.01
CC[C@@]1(O)C(=O)OCc2c1cc1n(c2=O)Cc2c-1nc1cc(F)c(C)cc1c2Cn1cc(CN2CCCC(N)C2)nn1 (stereo partly drawn) [Payload 33] | 32.9 | 22.96
CC[C@@]1(O)C(=O)OCc2c1cc1n(c2=O)Cc2c-1nc1cc(F)c(C)cc1c2Cn1cc(-c2cccc(N)c2)nn1 [Payload 16] | 38.5 | 8.55
CC[C@@]1(O)C(=O)OCc2c1cc1n(c2=O)Cc2c-1nc1cc(F)c(C)cc1c2Cn1cc(C(C)NC(=O)CO)nn1 (stereo partly drawn) [Payload 64] | 20.6 | 22.21
CC[C@@]1(O)C(=O)OCc2c1cc1n(c2=O)Cc2c-1nc1cc(F)c(C)cc1c2Cn1cc(CNC(=O)CO)nn1 [Payload 7] | 1830 | 203.99
CC[C@@]1(O)C(=O)OCc2c1cc1n(c2=O)Cc2c-1nc1cc(F)c(C)cc1c2Cn1cc(CN)nn1 [Payload 5] | 81.5 | 18.99
CC[C@@]1(O)C(=O)OCc2c1cc1n(c2=O)Cc2c-1nc1cc(F)c(C)cc1c2Cn1cc(CCCO)nn1 [Payload 59] | 4.03 | 4.84
CC[C@@]1(O)C(=O)OCc2c1cc1n(c2=O)Cc2c-1nc1cc(F)c(C)cc1c2Cn1cc(C(C)(C)NC(=O)CO)nn1 [Payload 69] | 95.8 | 104.13
CC[C@@]1(O)C(=O)OCc2c1cc1n(c2=O)Cc2c-1nc1cc(F)c(C)cc1c2Cn1cc(CNC)nn1 [Payload 6] | 690 | 94.92
CC[C@@]1(O)C(=O)OCc2c1cc1n(c2=O)Cc2c-1nc1cc(F)c(C)cc1c2Cn1cc(C2CCCN2)nn1 (stereo partly drawn) [Payload 57] | 18.3 | 12.80
CC[C@@]1(O)C(=O)OCc2c1cc1n(c2=O)Cc2c-1nc1cc(F)c(C)cc1c2Cn1nnc(CO)c1CO [Payload 12] | 374 | 41.69
CC[C@@]1(O)C(=O)OCc2c1cc1n(c2=O)Cc2c-1nc1cc(F)c(C)cc1c2Cn1cc(C2(NC(=O)CO)CC2)nn1 [Payload 63] | 41 | 44.21
